Measurements taken from US11180504B2 (ORCHID PHARMA LTD., priority 2016, dated 2021).
Values after ≈ are worked out from the molar mass of the structure shown.

Assays:
[1] = tested on: carbapenem sensitive Escherichia coli; assay: MIC by broth micro-dilution (CLSI), carbapenem sensitive E. coli; format: cell-based; settings: Escherichia coli, ATCC25922, ESBL −ve E. coli ATCC25922; read-out: MIC
[2] = tested on: methicillin-sensitive Staphylococcus aureus; assay: MIC by broth micro-dilution (CLSI), methicillin-sensitive S. aureus; format: cell-based; settings: Staphylococcus aureus, ATCC 29213 / MSSA, MSSA S. aureus ATCC29213; read-out: MIC
[3] = tested on: carbapenemase producing K. pneumoniae; assay: MIC by broth micro-dilution (CLSI), carbapenemase producing K. pneumoniae; format: cell-based, Klebsiella pneumoniae; settings: Klebsiella pneumoniae, ATCCBAA1705, KPC-2 K. pneumoniae ATCC BAA-1705; read-out: MIC
[4] = tested on: carbapenem sensitive Pseudomonas aeruginosa; assay: MIC by broth micro-dilution (CLSI), carbapenem sensitive P. aeruginosa; format: cell-based; settings: Pseudomonas aeruginosa, ATCC27853, Meropenem susceptible P. aeruginosa ATCC27853; read-out: MIC

Row | SMILES | MIC [1] [µg/mL] | MIC [2] [µg/mL] | MIC [3] [µg/mL] | MIC [4] [µg/mL]
1 | C[C@@H](NC(=O)Cc1nnnn1C)[C@H]1C(=O)N2C(C(=O)O)=C(S[C@@H]3CN[C@H](C(=O)N(C)C)C3)[C@H](C)[C@H]12 [Example 304, (4R,5S,6R)-3-((3S,5S)-5-(dimethylcarbamoyl)pyrrolidin-3-ylthio)-4-methyl-6-((R) - 1-(2-(1-methyl-1H-tetrazol-5-yl)acetamido)ethyl)-7-oxo-1-azabicyclo[3.2.0]hept-2-ene-2-carboxylic acid] | 1 (≈ 1.97 µM) | 8 (≈ 15.8 µM) | 4 (≈ 7.9 µM) | > 128
2 | C[C@@H](NC(=O)Cn1cnnn1)[C@H]1C(=O)N2C(C(=O)O)=C(S[C@@H]3CN[C@H](CNS(N)(=O)=O)C3)[C@H](C)[C@H]12 [Example 305, (4R,5S,6R)-6-((R) - 1-(2-(1H-tetrazol-1-yl)acetamido)ethyl)-4-methyl-7-oxo-3-((3S,5S)-5-((sulfamoylamino)methyl)pyrrolidin-3-ylthio)-1-azabicyclo[3.2.0]hept-2-ene-2-carboxylic acid] | 0.25 (≈ 0.472 µM) | 2 (≈ 3.78 µM) | 1 (≈ 1.89 µM) | 8 (≈ 15.1 µM)
3 | C[C@@H](NC(=O)Cn1cnnn1)[C@H]1C(=O)N2C(C(=O)[O-])=C(SC3Cn4cnc[n+]4C3)[C@H](C)[C@H]12 (stereo partly drawn) [Example 306, (4R,5S,6R)-6-((R) - 1-(2-(1H-tetrazol-1-yl)acetamido)ethyl)-3-(6,7-dihydro-5H-pyrazolo[1,2-a][1,2,4]triazol-4-ium-6-ylthio)-4-methyl-7-oxo-1-azabicyclo[3.2.0]hept-2-ene-2-carboxylate] | 0.25 (≈ 0.544 µM) | 2 (≈ 4.35 µM) | 1 (≈ 2.18 µM) | 4 (≈ 8.71 µM)
4 | CNCc1cn(CC(=O)N[C@H](C)[C@H]2C(=O)N3C(C(=O)O)=C(S[C@@H]4CN[C@H](C(=O)N(C)C)C4)[C@H](C)[C@H]23)nn1 [Example 309, (4R,5S,6R)-3-((3S,5S)-5-(dimethylcarbamoyl)pyrrolidin-3-ylthio)-4-methyl-6-((R) - 1-(2-(4-((methylamino)methyl)-1H-1,2,3-triazol-1-yl)acetamido)ethyl)-7-oxo-1-azabicyclo[3.2.0]hept-2-ene-2-carboxylic acid] | 1 (≈ 1.87 µM) | 16 (≈ 29.9 µM) | 4 (≈ 7.48 µM) | 32 (≈ 59.9 µM)
5 | CNCC(=O)N[C@H](C)[C@H]1C(=O)N2C(C(=O)O)=C(S[C@@H]3CN[C@H](C(=O)N4CC[C@H](n5ncnn5)C4)C3)[C@H](C)[C@H]12 [Example 310, (4R,5S,6R)-3-((3S,5S)-5-((S)-3-(2H-tetrazol-2-yl)pyrrolidine-1-carbonyl)pyrrolidin-3-ylthio)-4-methyl-6-((R) - 1-(2-(methylamino)acetamido)ethyl)-7-oxo-1-azabicyclo[3.2.0]hept-2-ene-2-carboxylic acid] | 1 (≈ 1.83 µM) | 32 (≈ 58.4 µM) | 4 (≈ 7.3 µM) | 64 (≈ 117 µM)
6 | C[C@@H](NC(=O)[C@@H](N)Cn1cccn1)[C@H]1C(=O)N2C(C(=O)O)=C(S[C@@H]3CN[C@H](C(=O)N(C)C)C3)[C@H](C)[C@H]12 [Example 311, (4R,5S,6R)-6-((R) - 1-((S)-2-amino-3-(1H-pyrazol-1-yl)propanamido)ethyl)-3-((3S,5S)-5-(dimethylcarbamoyl)pyrrolidin-3-ylthio)-4-methyl-7-oxo-1-azabicyclo[3.2.0]hept-2-ene-2-carboxylic acid] | 8 (≈ 15.4 µM) | 32 (≈ 61.6 µM) | 32 (≈ 61.6 µM) | > 128
7 | C[C@H]([C@H]1C(=O)N2C(C(=O)O)=C(S[C@@H]3CN[C@H](C(=O)N(C)C)C3)[C@H](C)[C@H]12)n1ncnn1 [Example 313, (4R,5S,6S)-6-((R) - 1-(2H-tetrazol-2-yl)ethyl)-3-((3S,5S)-5-(dimethylcarbamoyl)pyrrolidin-3-ylthio)-4-methyl-7-oxo-1-azabicyclo[3.2.0]hept-2-ene-2-carboxylic acid] | 1 (≈ 2.3 µM) | 4 (≈ 9.18 µM) | 16 (≈ 36.7 µM) | > 128
8 | C[C@@H](NC(=O)Cn1cncn1)[C@H]1C(=O)N2C(C(=O)O)=C(S[C@@H]3CN[C@H](C(=O)N4CCNCC4)C3)[C@H](C)[C@H]12 [Example 314, (4R,5S,6R)-6-((R) - 1-(2-(1H-tetrazol-1-yl)acetamido)ethyl)-4-methyl-7-oxo-3-((3S,5S)-5-(piperazine-1-carbonyl)pyrrolidin-3-ylthio) - 1-azabicyclo[3.2.0]hept-2-ene-2-] | 0.25 (≈ 0.469 µM) | 4 (≈ 7.51 µM) | 2 (≈ 3.75 µM) | 4 (≈ 7.51 µM)
9 | C[C@@H](NC(=O)Cn1nnc(N)n1)[C@H]1C(=O)N2C(C(=O)O)=C(S[C@@H]3CN[C@H](C(=O)N(C)C)C3)[C@H](C)[C@H]12 [Example 315, (4R,5S,6R)-6-((R) - 1-(2-(5-amino-2H-tetrazol-2-yl)acetamido)ethyl)-3-((3S,5S)-5-(dimethylcarbamoyl)pyrrolidin-3-ylthio)-4-methyl-7-oxo-1-azabicyclo[3.2.0]hept-2-ene-2-carboxylic acid] | 0.125 (≈ 0.246 µM) | 4 (≈ 7.88 µM) | 2 (≈ 3.94 µM) | 64 (≈ 126 µM)
10 | C[C@@H](NC(=O)Cn1nnc(N)n1)[C@H]1C(=O)N2C(C(=O)O)=C(S[C@@H]3CN[C@H](C(=O)N4CC[C@@H](N)C4)C3)[C@H](C)[C@H]12 [Example 316, (4R,5S,6R)-6-((R) - 1-(2-(5-amino-2H-tetrazol-2-yl)acetamido)ethyl)-3-((3S,5S)-5-((R)-3-aminopyrrolidine-1-carbonyl)pyrrolidin-3-ylthio)-4-methyl-7-oxo-1-azabicyclo[3.2.0]hept-2-ene-2-carboxylic acid] | 0.25 (≈ 0.456 µM) | 4 (≈ 7.29 µM) | 16 (≈ 29.2 µM) | 16 (≈ 29.2 µM)
11 | C[C@@H](NC(=O)Cn1nc(C(F)(F)F)nc1N)[C@H]1C(=O)N2C(C(=O)O)=C(S[C@@H]3CN[C@H](C(=O)N4CC[C@@H](N)C4)C3)[C@H](C)[C@H]12 [Example 317, (4R,5S,6R)-6-((R) - 1-(2-(5-amino-3-(trifluoromethyl) - 1H-1,2,4-triazol-1-yl)acetamido)ethyl)-3-((3S,5S)-5-((R)-3-aminopyrrolidine-1-carbonyl)pyrolidin-3-ylthio)-4-methyl-7-oxo-1-azabicyclo[3.2.0]hept-2-ene-2-carboxylic acid] | 0.5 (≈ 0.812 µM) | 2 (≈ 3.25 µM) | 8 (≈ 13 µM) | 128 (≈ 208 µM)
12 | C[C@@H](NC(=O)C(C)(C)n1cnnn1)[C@H]1C(=O)N2C(C(=O)O)=C(S[C@@H]3CN[C@H](C(=O)N(C)C)C3)[C@H](C)[C@H]12 [Example 318, (4R,5S,6R)-3-((3S,5S)-5-(dimethylcarbamoyl)pyrrolidin-3-ylthio)-4-methyl-6-((R) - 1-(2-methyl-2-(1H-tetrazol-1-yl)propanaraido)ethyl)-7-oxo-1-azabicyclop[3.2.0]hept-2-ene-2-carboxylic acid] | 2 (≈ 3.84 µM) | 16 (≈ 30.7 µM) | 128 (≈ 246 µM) | > 128
13 | C[C@H]([C@H]1C(=O)N2C(C(=O)O)=C(S[C@@H]3CN[C@H](C(=O)N(C)C)C3)[C@H](C)[C@H]12)n1cnnn1 [Example 319, (4R,5S,6S)-6-((R)-1-(1H-tetrazol-1-yl)ethyl)-3-((3S,5S)-5-(dimethylcarbamoyl)pyrrolidin-3-ylthio)-4-methyl-7-oxo-1-azabicyclo[3.2.0]hept-2-ene-2-carboxylic acid] | 0.25 (≈ 0.574 µM) | 2 (≈ 4.59 µM) | 1 (≈ 2.3 µM) | 32 (≈ 73.5 µM)
14 | C[C@@H](NC(=O)Cn1nc(C(F)(F)F)nc1N)[C@H]1C(=O)N2C(C(=O)O)=C(S[C@@H]3CN[C@H](C(=O)N(C)C)C3)[C@H](C)[C@H]12 [Example 320, (4R,5S,6R)-6-((R) - 1-(2-(5-amino-3-(trifluoromethyl) - 1H-1,2,4-triazol-1-yl)acetamido)ethyl)-3-((3S,5S)-5-(dimethylcarbamoyl)pyrrolidin-3-ylthio)-4-methyl-7-oxo-1-azabiayclo[3.2.0]hept-2-ene-2-carboxylic acid] | 1 (≈ 1.74 µM) | 2 (≈ 3.48 µM) | 4 (≈ 6.96 µM) | 128 (≈ 223 µM)
15 | C[C@@H](NC(=O)CSc1nnnn1C)[C@H]1C(=O)N2C(C(=O)O)=C(S[C@@H]3CN[C@H](C(=O)N(C)C)C3)[C@H](C)[C@H]12 [Example 321, (4R,5S,6R)-3-((3S,5S)-5-(dimethylcirbamoyl)pyrrolidin-3-ylthio)-4-methyl-6-((R) - 1-(2-(1-methyl-1H-tetrazol-5-ylthio)acetamido)ethyl)-7-oxo-1-azabicyclo[3.2.0]hept-2-ene-2-carboxylic acid] | 1 (≈ 1.86 µM) | 2 (≈ 3.71 µM) | 8 (≈ 14.9 µM) | > 128
16 | C[C@@H](NC(=O)[C@@H](N)Cn1cnnn1)[C@H]1C(=O)N2C(C(=O)O)=C(S[C@@H]3CN[C@H](C(=O)N(C)C)C3)[C@H](C)[C@H]12 [Example 322, (4R,5S,6R)-6-((R) - 1-((S)-2-amino-3-(1H-tetrazol-1-yl)propanamido)ethyl)-3-((3S,5S)-5-(dimethylcarbamoyl)pyrrolidin-3-ylthio)-4-methyl-7-oxo-1-azabicyclo[3.2.0]hept-2-ene-2-carboxylic acid] | 2 (≈ 3.83 µM) | 16 (≈ 30.7 µM) | 16 (≈ 30.7 µM) | > 128
17 | C[C@@H](NC(=O)[C@@H](N)Cn1ncnn1)[C@H]1C(=O)N2C(C(=O)O)=C(S[C@@H]3CN[C@H](C(=O)N(C)C)C3)[C@H](C)[C@H]12 [Example 323, (4R,5S,6R)-6-((R) - 1-((S)-2-amino-3-(2H-tetrazol-2-yl)propanamido)ethyl)-3-((3S,5S)-5-(dimethylcarbamoyl)pyrrolidin-3-ylthio)-4-methyl-7-oxo-1-azabicyclo[3.2.0]hept-2-ene-2-carboxylic acid] | 2 (≈ 3.83 µM) | 16 (≈ 30.7 µM) | 8 (≈ 15.3 µM) | > 128
